Assay [1] has as its system KP-4 human pancreatic tumor xenograft. The following applies: 40 mg/kg.
Procedure: Sunitinib was administered orally and once-daily at a dose of 40 mg/kg on days 11-25 as its 0.5% methyl cellulose suspension. Administration volume was 10 mL/kg.
Assay [2] concerns the target c-Met receptor (Homo sapiens, UniProt P08581). The following applies: read-out: Kd, high affinity binding site; cited from earlier work.
In assay [3] the target is heparin sulfate proteoglycans (HSPG). The following applies: HSPG on the cell surface and extracellular matrix; read-out: Kd, low affinity binding site; cited from earlier work.
Assay [4] has as its system IM95m human gastric tumor xenograft. Kind of assay: Human gastric cancer IM95m tumor xenograft model. It is filed as in vivo, mouse. The following applies: SCID mice, s.c. IM95m; day 53 to day 81; HuL2G7 10 mg/kg i.v. once-weekly, erlotinib 25 mg/kg p.o. once-daily days 53-80, or both. Here is the method:
FIG. 1. (A) Combination effects of humanized L2G7 (HuL2G7) and erlotinib in gastric cancer (tumor) IM95m xenograft model. Treatment was started from 53 days after inoculation. Mice treated with relevant vehicles (i.v. and/or p.o.), HuL2G7 (10 mg/kg/week, i.v., on days 53, 60, 67, and 74), erlotinib (25 mg/kg, p.o., qd×28 doses) or the combined regimen for 28 days. Data represents mean±SD (n=6). *p≦0.025 by one-tailed Dunnett's test (v.s. vehicle). (B) Comparison of differential tumor volumes of the mice group treated with HuL2G7, erlotinib, and a combination of the two. Tumor volume of each mouse on days 53 was subtracted from the volume on days 81. Data represents mean±SD (n=6). # p≦0.05 by Wilcoxon signed-rank test (v.s. combo).

Sequence of c-Met receptor (P08581 25-1390): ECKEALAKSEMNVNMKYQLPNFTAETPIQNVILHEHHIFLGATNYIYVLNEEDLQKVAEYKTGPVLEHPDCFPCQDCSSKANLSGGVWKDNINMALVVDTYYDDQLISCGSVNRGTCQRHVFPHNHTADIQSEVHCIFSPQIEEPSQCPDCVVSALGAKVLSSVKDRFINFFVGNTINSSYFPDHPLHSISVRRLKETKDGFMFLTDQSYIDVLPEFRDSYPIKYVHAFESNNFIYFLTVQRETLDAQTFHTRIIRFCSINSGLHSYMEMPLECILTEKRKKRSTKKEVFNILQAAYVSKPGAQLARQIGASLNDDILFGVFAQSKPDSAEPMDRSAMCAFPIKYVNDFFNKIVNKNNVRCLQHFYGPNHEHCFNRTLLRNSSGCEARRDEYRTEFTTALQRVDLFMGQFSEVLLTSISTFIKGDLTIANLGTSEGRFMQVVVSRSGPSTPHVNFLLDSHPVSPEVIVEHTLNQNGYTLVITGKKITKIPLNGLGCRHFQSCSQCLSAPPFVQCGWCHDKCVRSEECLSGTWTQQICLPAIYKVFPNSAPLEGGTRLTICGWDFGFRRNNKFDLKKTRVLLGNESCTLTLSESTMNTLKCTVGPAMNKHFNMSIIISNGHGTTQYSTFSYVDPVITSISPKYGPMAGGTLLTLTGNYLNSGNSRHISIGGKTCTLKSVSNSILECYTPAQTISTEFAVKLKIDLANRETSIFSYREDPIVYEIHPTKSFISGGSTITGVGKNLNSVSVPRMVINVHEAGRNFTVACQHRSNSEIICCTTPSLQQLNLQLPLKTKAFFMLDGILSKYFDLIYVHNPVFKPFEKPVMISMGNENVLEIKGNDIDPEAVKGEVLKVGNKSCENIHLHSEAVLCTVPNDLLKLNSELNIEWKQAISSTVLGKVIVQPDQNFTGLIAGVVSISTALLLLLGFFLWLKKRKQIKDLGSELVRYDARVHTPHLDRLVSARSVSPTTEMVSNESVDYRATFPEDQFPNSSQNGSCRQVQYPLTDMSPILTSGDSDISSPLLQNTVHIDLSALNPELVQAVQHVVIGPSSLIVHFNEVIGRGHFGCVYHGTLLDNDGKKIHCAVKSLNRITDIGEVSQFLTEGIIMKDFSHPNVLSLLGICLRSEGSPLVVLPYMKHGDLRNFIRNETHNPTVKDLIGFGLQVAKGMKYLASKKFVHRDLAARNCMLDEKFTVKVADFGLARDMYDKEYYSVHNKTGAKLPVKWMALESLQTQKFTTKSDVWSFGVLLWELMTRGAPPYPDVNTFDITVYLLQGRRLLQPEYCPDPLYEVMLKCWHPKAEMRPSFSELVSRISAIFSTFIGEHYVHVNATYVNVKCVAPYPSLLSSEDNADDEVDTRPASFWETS

On to `CCN(CC)CCNC(=O)c1c(C)[nH]c(/C=C2\C(=O)Nc3ccc(F)cc32)c1C` [sunitinib], for which, in assay [1], the “T/C (%) = ΔT/ΔC×100, change in tumor volume” value came to 48%.
As usually defined, the Kd is the concentration at which binding is half-saturated. In the case of “HGF: multifunctional heterodimeric polypeptide, 102 kDa, ligand of c-Met”, the Kd is 0.2 nM in assay [2] and 1 nM in assay [3].
For the compound `C#Cc1cccc(Nc2ncnc3cc(OCCOC)c(OCCOC)cc23)c1` [erlotinib], the “T/C (%) = ΔT/ΔC×100, change in tumor volume” value in assay [4] turned out to be 45%.

Values taken from patent US20120052064A1, “ANTI-HGF ANTIBODY COMBINATIONAL CANCER THERAPIES” (priority 2009, published 2012).
